Source: article PMC8752837, “Structural basis of BAK activation in mitochondrial apoptosis initiation” (Nature Communications, 2022)
Residue numbers refer to the chain shown, from its start.

Assays:
Human BAK-∆TM-His6 (BAK) = target: T1, Human BAK-∆TM-His6 (BAK) (Homo sapiens, UniProt Q16611); test: Liposome permeabilization assay (ANTS/DPX dye release from LUVs): activation of WT BAK by BH3 peptides; format: biochemical; conditions: 50 nM BAK; EC50 from AUC vs peptide dose, data in Supplementary Figure 7c; 37 °C, 90 min; read-out: Liposome permeabilization EC50
T1 construct: C-terminus truncated recombinant human BAK containing C-terminal 6× histidine tag (MEAS-BAK); made in house; host or cells: E. coli T7 Express pLac I/Y
T1 sequence (Q16611 1-186 limits assumed): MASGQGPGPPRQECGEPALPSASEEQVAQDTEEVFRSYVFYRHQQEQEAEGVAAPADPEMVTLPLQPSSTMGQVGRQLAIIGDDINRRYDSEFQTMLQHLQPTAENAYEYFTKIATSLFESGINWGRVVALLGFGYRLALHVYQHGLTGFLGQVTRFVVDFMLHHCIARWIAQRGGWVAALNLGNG
Method: We performed liposome permeabilization assays as previously described[43]–[46]. […] We mixed the lipid film in ANTS/DPX solution by vortexing and sonication (~15 min) followed by extrusion through polycarbonate membrane of 2 μm pore size (Avanti Polar lipids) to generate homogenous large unilamellar vesicles (LUVs). We separated LUVs from free ANTS/DPX by S500 size exclusion chromatography and stored them at 4 °C in the dark. We prepared peptide and protein dilutions in 96-well black flat bottom plates (Costar) kept on ice. […] We quantified liposome permabilization by integrating area under curve (AUC) of normalized traces based on the Simpson’s equation, and analyzed that data in Excel and GraphPad Prism. AUC measurements reflect the kinetic and extent of liposome permeabilization and provide quantitative means for comparison between different experimental conditions (e.g., BAK mutants with gross or partial variation in activity).

I81R BAK = target: T2, I81R BAK (Homo sapiens, UniProt Q16611, I81R); test: Isothermal titration calorimetry with mutant BAK; format: binding; conditions: rebuttal, earlier Figures 7c, S10d
T2 construct: To generate tevBAK (residues 22–186), we cleaved off the histidine tag with TEV protease; His tag (vector pNIC28-Bsa4) (N, cleaved yes); made in house; host or cells: E. coli T7 Express pLac I/Y
T2 sequence (Q16611 22-186 I81R): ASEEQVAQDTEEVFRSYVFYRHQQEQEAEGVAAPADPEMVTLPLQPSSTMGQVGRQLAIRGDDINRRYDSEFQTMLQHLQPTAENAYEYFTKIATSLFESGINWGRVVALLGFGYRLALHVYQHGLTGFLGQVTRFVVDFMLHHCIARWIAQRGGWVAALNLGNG
Method: Protein samples were exchanged into 20 mM HEPES, 100 mM NaCl and 1 mM TCEP prior to the experiment. Titrations were performed by first injecting 0.5 μl of 250 or 500 µM BID BH3 peptides into a solution of 20 or 50 µM BAK followed by additional 2 μl injections. […] Results were analyzed using Origin software (OriginLab) provided by MicroCal. Binding constants (KD) and thermodynamic parameters were calculated from the average of two or three individual titrations by fitting the data to a single site binding model using a nonlinear least-squares fitting algorithm.

MEAS-BAK-His6 = target: T3, MEAS-BAK-His6 (Homo sapiens, UniProt Q16611); test: Surface plasmon resonance; format: binding; conditions: 20 °C; MEAS-BAK-His6 captured on Ni-NTA HisCap chip; three-fold peptide dilution series injected in triplicate; 1:1 interaction model; read-out: SPR KD
T3 construct: C-terminus truncated recombinant human BAK containing C-terminal 6× histidine tag (MEAS-BAK); made in house; host or cells: E. coli T7 Express pLac I/Y
T3 sequence (Q16611 1-186 limits assumed): T1 sequence (Q16611 1-186 limits assumed)
Method: We conducted SPR experiments at 20 °C using a Pioneer FE optical biosensor (ForteBio) amd histidine-tagged MEAS-BAK-His6 immobilized on polycarboxylate hydrogel-coated gold chips preimmobilized with nitrilotriacetic acid (HisCap chips; ForteBio). We primed the chip in chelating buffer (10 mM HEPES pH 7.4, 150 mM NaCl, 50 µM EDTA, 0.005% Tween20) and preconditioned it at 10 µL/min with three 60 s injections of wash buffer (10 mM HEPES pH 8.3, 150 mM NaCl, 350 mM EDTA, 0.05% Tween20) and one 60 s injection of chelating buffer before charging with a 60 s injection of 500 µM NiCl2 in chelating buffer. After priming into binding buffer (20 mM HEPES pH 8.0, 200 mM NaCl, 1 mM TCEP, 0.01% Tween20), we injected BAK to achieve ~500 RU of captured protein. As reference cell, we charged one flow cell on the chip with Ni^2+ without adding protein. […] We included a series of buffer-only (blank) injections throughout the experiment to account for instrumental noise. […] We processed, double-referenced, solvent corrected, and analyzed the data using the software package Qdat (version 4.3.1.2, ForteBio). We determined kinetic rate constants and affinities by fitting the data to a 1:1 interaction model.

I81R(3) BAK = target: T4, I81R(3) BAK (Homo sapiens, UniProt Q16611, I81R); test: Liposome permeabilization assay: BH3 peptide activation of I81R(3) BAK receptor; format: biochemical; conditions: 200 nM protein receptor; rebuttal, earlier Figure 7c; read-out: EC50 in liposome permeabilization upon direct activation of I81R BAK
T4 construct: C-terminus truncated recombinant human BAK containing C-terminal 6× histidine tag (MEAS-BAK); made in house; host or cells: E. coli T7 Express pLac I/Y
T4 sequence (Q16611 1-186 I81R limits assumed): T1 sequence (Q16611 1-186 limits assumed) with I81R
Method: We next compared activation of mutant BAK receptors by WT BID BH3 and WT BAK BH3 peptide ligands. At concentrations above 1 µM, both peptide ligands would activate WT or V74A(1) BAK (Supplementary Figs. 3e, 4d, e, and Supplementary Table 1).
We performed liposome permeabilization assays as previously described[43]–[46]. […] (nickel salt) [DGS NTA(Ni), 2.5 μM final concentration in each assay] (Avanti Polar Lipids). We prepared 12.5 mM fluorophore; 8-aminonaphthalene-1, 3, 6-trisulfonic acid, disodium salt (ANTS) and 45 mM quencher; p-xylene-bis-pyridiniumbromide (DPX) in LUV buffer (10 mM HEPES pH 6.8, 200 mM KCl and 5 mM MgCl2). We mixed the lipid film in ANTS/DPX solution by vortexing and sonication (~15 min) followed by extrusion through polycarbonate membrane of 2 μm pore size (Avanti Polar lipids) to generate homogenous large unilamellar vesicles (LUVs). We separated LUVs from free ANTS/DPX by S500 size exclusion chromatography and stored them at 4 °C in the dark. We prepared peptide and protein dilutions in 96-well black flat bottom plates (Costar) kept on ice. ANTS release from permeabilized liposomes causes an increase in fluorescence, which we monitored at 37 °C for 90 min using a CLARIOSTAR microplate reader (BMG Labtech) set at excitation and emission wavelengths of 360 and 530 nm, respectively. We normalized the data relative to maximum and minimum fluorescence induced by 3% CHAPS and buffer controls, respectively. We quantified liposome permabilization by integrating area under curve (AUC) of normalized traces based on the Simpson’s equation, and analyzed that data in Excel and GraphPad Prism. AUC measurements reflect the kinetic and extent of liposome permeabilization and provide quantitative means for comparison between different experimental conditions (e.g., BAK mutants with gross or partial variation in activity). Variability in permeabilization of different liposomes is common and our analyses compare among conditions investigated with the same liposomes. […]

[1] = system: BCL2allKO HCT116 cells reconstituted with Dox-inducible mC-BAK; test: Dox-induced cell death by IncuCyte imaging of SYTOX Green uptake (autoactivation); format: cell-based, human; conditions: qVD 40 µM
Source text: For mammalian cell culture experiments, we cloned the full length human BAK cDNA into pCR 2.1 TOPO vector, mutated BAK as needed, and PCR amplified the BAK gene for cloning into the BamHI and NotI sites of pRETROX mCherry vector for retroviral transduction. Amplification and mutagenesis primers are included in Supplementary Table 4. To test direct BAK activation and BAK autoactivation in cells, we produced cells stably expressing mCherry-human BAK (mC-BAK) ± human BID (BID) on a genetic background devoid of the entire BCL-2 family repertoire (all 17 BCL-2 genes), BCL2allKO HCT116, as described by the Xu Luo laboratory. […] To enrich for populations of cells that express mC-BAK, we treated cells with low Dox dose (25 ng/mL) and fluorescence-activated cell sorted (FACS) the mCherry positive cells. […]
We seeded cells in 24-well (100,000 cells/well), 96-well (15,000 cells/well), or 384-well (10,000 cells/well) plates coated with 10 µg/mL fibronectin. After ≥24 h of attachment and recovery, we induced cell death with Dox (up to 1000 ng/mL) and monitored SYTOX Green (25 nM) uptake by Incucyte imaging. […] We monitored Incucyte imaging for up to 48 h, followed by endpoint FACS analysis to measure the extent of cell death based on SYTOX Green positive cells on FACSCalibur systems (BD Biosciences). As expected, cells with low mCherry fluorescence were refractory to cell death.

For `CC[C@H](C)[C@H](NC(=O)[C@H](CC(N)=O)NC(=O)[C@H](CCCNC(=N)N)NC(=O)[C@@H](NC(=O)[C@@H](NC(=O)[C@H](CC(=O)O)NC(=O)[C@H](CCC(=O)O)NC(C)=O)[C@@H](C)CC)[C@@H](C)CC)C(=O)N[C@@H](C)C(=O)N[C@@H](CCCNC(=N)N)C(=O)N[C@@H](Cc1c[nH]cn1)C(=O)N[C@@H](CC(C)C)C(=O)N[C@@H](C)C(=O)N[C@@H](CCC(N)=O)C(=O)N[C@@H](CCSC)C(=O)NCC(=O)N[C@@H](CC(=O)O)C(=O)N[C@@H](CO)C(=O)N[C@@H](CCSC)C(=O)N[C@@H](CC(=O)O)C(=O)N[C@@H](CCCNC(=N)N)C(=O)N[C@@H](CO)C(=O)N[C@@H](Cc1c[nH]c2ccccc12)C(N)=O` [M(3)W(5)], the EC50 (Human BAK-∆TM-His6 (BAK)) was 79 ± 49 nM, the Kd (I81R BAK) was 1340 nM and the Kd (MEAS-BAK-His6) was 506 ± 1 nM. It also gave an EC50 (I81R(3) BAK) of roughly 5000 nM.

`CC(C)[C@H](NC(=O)c1ccc2ccccc2n1)C(=O)N[C@@H](CC(=O)O)C(=O)COc1c(F)cccc1F` [qVD, reference compound] was tested, and the “effect on cell death” value [1] was “blocked cell death”.
